Data published in patent EP4070856A1, “ORGANIC COMPOUNDS AND USES THEREOF” (Adebiyi, Ezekiel, priority 2021, dated 2022).

Assay: In vitro cytotoxicity with L-6 cells (Alamar Blue)
Type: cell-based
Conditions: L-6 cells (rat skeletal myoblasts), 70 h + 2 h Alamar Blue; read-out: Cytotoxicity L6 IC50
Procedure: Assays were performed in 96-well microtiter plates, each well containing 100 µl of RPMI 1640 medium supplemented with 1% L-glutamine (200mM) and 10% fetal bovine serum, and 4000 L-6 cells (a primary cell line derived from rat skeletal myoblasts). Serial drug dilutions of eleven 3-fold dilution steps covering a range from 100 to 0.002 µg/ml were prepared. After 70hours of incubation the plates were inspected under an inverted microscope to assure growth of the controls and sterile conditions. 10µl of Alamar Blue was then added to each well and the plates incubated for another 2 hours. Later they were read with a Spectramax Gemini XS microplate fluorometer (Molecular Devices Cooperation, Sunnyvale, CA, USA) using an excitation wave length of 536 nm and an emission wave length of 588 nm. The IC50 values were calculated by linear regression from the sigmoidal dose inhibition curves using SoftmaxPro software (Molecular Devices Cooperation, Sunnyvale, CA, USA). Podophyllotoxin (Sigma P4405) as control.

Row | SMILES | CC50 at 72 h | IC50 at 72 h
1 | N=C(NO)c1ccc(C(=O)NO)cc1 [Compound 1c] | 56.1 µg/mL | 
2 | N=C(NO)c1ccc(NC(=O)NOCc2ccccc2)cc1 [Compound 2b] | 43 µg/mL | 
3 | N=C(NO)c1ccc(NC(=O)NO)cc1 [Compound 2c] | > 100 µg/mL | 
4 | N=C(NO)c1ccc(NC(=S)NOCc2ccccc2)cc1 [Compound 3c] | 57.6 µg/mL | 
5 | O=C(NO)Nc1ccc(Cl)c(Cl)c1 [Compound 4b] | > 100 µg/mL | 
6 | O=C(NO)NC1CCCCC1 [Compound 7b] | 93 µg/mL | 
7 | Nc1ccc(C(=O)NO)cc1 [Compound 9b] | 43.4 µg/mL | 
8 | CCCCONC(=O)c1ccc(NC(=N)N)cc1 [Compound 9d] | > 100 µg/mL | 
9 | CC(=O)N(O)c1ccc(C(=N)NO)cc1 [Compound 10c] | 52.2 µg/mL | 
10 | N=C(NO)c1ccc(S(=O)(=O)NO)cc1 [Compound 12b] | > 100 µg/mL | 
11 | NC(=O)c1ccc(S(=O)(=O)NO)cc1 [Compound 12c] | > 100 µg/mL | 
12 | N=C(N)c1ccc(S(=O)(=O)NO)cc1 [Compound 12d] | > 100 µg/mL | 
13 | N=C(N)c1ccc(N)cc1 [Compound 13c] | 42.9 µg/mL | 
14 | CC(C)(C)C(=O)N(O)c1ccc(C#N)cc1 [Compound 15a] | 33.5 µg/mL | 
15 | Cc1ccc(S(=O)(=O)NC(C#N)C#N)cc1 [Compound 16a] | > 100 µg/mL | 
16 | N#Cc1nc(-c2ccco2)c[n+]([O-])c1N [Compound 16b] | 61.1 µg/mL | 
17 | Nc1nc2ncc(C(=O)O)nc2c(=O)[nH]1 [Compound P6CAH] | > 100 µg/mL | 
18 | COc1cc([C@@H]2c3cc4c(cc3[C@H](O)[C@H]3COC(=O)[C@H]23)OCO4)cc(OC)c1OC [Podophyllotoxin, reference compound] |  | 0.006 µg/mL
